In patent US11208414B2, “Ectonucleotidase inhibitors and methods of use thereof” (Calithera Biosciences, Inc., priority 2016, dated 2021):

Target: recombinant CD73 (Homo sapiens (Human), UniProt P21589)
Experiment: Inhibition of soluble recombinant CD73 enzyme activity (Malachite Green)
Assay type: biochemical
Settings: recombinant CD73 0.5 nM, AMP 50 μM, 30 minutes at room temperature
Method: The concentration of inorganic phosphate was determined using a phosphate standard curve.

recombinant CD73, sequence (P21589 27-547): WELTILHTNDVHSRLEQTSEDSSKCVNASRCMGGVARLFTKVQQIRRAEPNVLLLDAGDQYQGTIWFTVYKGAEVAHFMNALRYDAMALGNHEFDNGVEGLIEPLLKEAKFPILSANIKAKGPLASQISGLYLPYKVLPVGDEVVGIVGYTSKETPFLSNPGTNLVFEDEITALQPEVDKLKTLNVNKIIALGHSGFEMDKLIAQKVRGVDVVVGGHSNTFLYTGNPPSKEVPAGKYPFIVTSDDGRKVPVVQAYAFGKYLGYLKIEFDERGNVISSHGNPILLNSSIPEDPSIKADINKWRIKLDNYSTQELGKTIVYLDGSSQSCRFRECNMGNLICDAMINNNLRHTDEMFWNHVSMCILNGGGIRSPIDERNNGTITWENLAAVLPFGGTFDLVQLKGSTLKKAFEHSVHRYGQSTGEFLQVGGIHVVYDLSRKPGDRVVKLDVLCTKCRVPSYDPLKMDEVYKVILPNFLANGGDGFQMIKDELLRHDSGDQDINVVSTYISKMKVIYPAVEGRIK

Compound: Nc1ncnc2c1ncn2[C@@H]1O[C@H](COC(C(=O)O)C(=O)O)[C@@H](O)C1F (stereo in doubt) [compound 9, 2-(((2R,3R,4R,5R)-5-(6-amino-9H-purin-9-yl)-4-fluoro-3-hydroxytetrahydrofuran-2-yl)-methoxy)malonic acid]
- IC50: > 50 µM
